Experimental data from article PMC4004260 (Biochemistry, 2014).

Assays:
[1] = target: cleaved gpASNase3 protomer (α- and β-subunit), Asp-bound (Cavia porcellus (guinea pig)); assay: crystal structure
[2] = system: gpASNase3 (guinea pig L-asparaginase type III); assay: NADH-coupled spectrophotometric assay; format: biochemical, Cavia porcellus; conditions: glycine-activated (cleaved) enzyme; Tris pH 7.5, 37 °C

stoichiometry N [1] | Km [2] [µM] | Compound
2 | – | cleaved gpASNase3 protomer (α- and β-subunit), Asp-bound (complex)
– | 410 ± 30 | N[C@@H](CC(=O)N[C@@H](Cc1ccccc1)C(=O)O)C(=O)O [β-L-Asp-L-Phe]
– | 2240 ± 140 | NC(=O)C[C@H](N)C(=O)O [L-Asn]
